Structures can show the parent of a compound that is named as a salt. Where two headings read alike, the source gives them in different places.
Columns and labels:
[1] = target: T1, human LPA1 receptor (Homo sapiens, UniProt Q92633); assay: LPA1/SRE-luc reporter assay in RH7777 cells stably expressing human LPA1 receptor and SRE-Luc2; type: cell-based; details: read-out: LPA1/SRE-luc EC50
T1 construct: expressed in transfected cells; host or cells: rat hepatocellular carcinoma cell line RH7777 (made 'similarly' to the LPA4 line)
Protocol: (§1) A stably expressing cell line that constantly expresses the human LPA4 receptor and SRE-Luc2 was established by the gene targeting introduction method of the rat hepatocellular carcinoma cell line RH7777 into rRosa26 site. Similarly, stably expressing cell lines for human LPA1 receptor and SRE-Luc2 were also established. Each cell line was seeded on a collagen-coated dish and maintained in culture, and cells were collected with trypsin EDTA and the required number (5×10^3 cells/well) was seeded on a 96-well plate. After culturing overnight at 37° C., LPA (Avanti Polar Lipids, Inc.) or each Example compound diluted with an assay medium added or not added with BSA was added, and the cells were cultured at 37° C. for 6 hr. Thereafter, a luciferase detection reagent (Bright-Glo, Promega) was added, and the chemiluminescence amount was quantified with an Envision (registered trade mark) multi-label counter (PerkinElmer) and used as an index of agonist activity.
(§2) The EC50 value of LPA or each Example compound was calculated using the […] Graph pad Prism for Windows ver.5.02 and ver.7.04. % Emax was expressed as the ratio of the maximum response (Emax) of LPA or each Example compound to the maximum response (Emax) of the positive control compound VPC 31144S (N-{(1S)-2-hydroxy-1-[(phosphonooxy)methyl]ethyl}(9Z) cctadec-9-enamide), with the Emax of the positive control compound VPC 31144S as 100%.

[2] = target: T2, human LPA4 receptor (Homo sapiens, UniProt Q99677); assay: LPA4/SRE-luc reporter assay in RH7777 cells stably expressing human LPA4 receptor and SRE-Luc2; type: cell-based; details: for EC50: read-out: LPA4/SRE-luc EC50
T2 construct: expressed in transfected cells; host or cells: rat hepatocellular carcinoma cell line RH7777, targeted integration at the rRosa26 site
Protocol: as §1, §2

[3] = RH7777, BSA added, Emax of positive control VPC 31144S as 100%, read-out: LPA4/SRE-luc % Emax
[4] = RH7777, BSA not added, Emax of positive control VPC 31144S as 100%, read-out: LPA4/SRE-luc % Emax

T2 sequence (Q99677 whole entry): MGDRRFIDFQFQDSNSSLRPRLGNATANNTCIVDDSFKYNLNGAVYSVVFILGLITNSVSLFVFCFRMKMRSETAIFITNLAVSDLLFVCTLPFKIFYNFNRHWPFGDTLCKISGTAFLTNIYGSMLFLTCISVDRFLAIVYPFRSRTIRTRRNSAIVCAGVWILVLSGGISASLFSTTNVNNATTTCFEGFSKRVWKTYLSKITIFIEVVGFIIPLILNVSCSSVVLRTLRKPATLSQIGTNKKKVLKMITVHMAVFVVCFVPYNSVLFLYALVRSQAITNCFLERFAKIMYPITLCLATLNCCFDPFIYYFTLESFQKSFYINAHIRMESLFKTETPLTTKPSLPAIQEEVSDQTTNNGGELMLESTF
T1 sequence (Q92633 whole entry): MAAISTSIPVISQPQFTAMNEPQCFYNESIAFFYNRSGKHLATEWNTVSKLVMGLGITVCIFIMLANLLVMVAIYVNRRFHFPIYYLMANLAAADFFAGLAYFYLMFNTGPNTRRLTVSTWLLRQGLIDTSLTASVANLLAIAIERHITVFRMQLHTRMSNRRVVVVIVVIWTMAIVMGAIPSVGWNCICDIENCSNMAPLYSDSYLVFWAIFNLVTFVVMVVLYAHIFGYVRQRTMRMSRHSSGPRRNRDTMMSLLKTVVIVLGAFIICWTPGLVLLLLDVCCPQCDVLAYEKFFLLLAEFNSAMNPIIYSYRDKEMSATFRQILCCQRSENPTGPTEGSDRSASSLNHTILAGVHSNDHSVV

| EC50 ([1]; BSA added) [nM] | EC50 ([2]; BSA added) [nM] | Emax [2, 3] [%] | EC50 ([1]; BSA not added) [nM] | EC50 ([2]; BSA not added) [nM] | Emax [2, 4] [%] | Compound | Emax ([2]; RH7777, read-out: LPA4/SRE-luc % Emax) [%] |
| --- | --- | --- | --- | --- | --- | --- | --- |
| > 10000 | < 41 | 114 |  |  |  | COc1ccc(CN(CCOP(=O)(O)O)C(=O)CCCCc2ccc(OCCc3ccc(OC(F)(F)F)cc3)cc2)cc1 [Example compound 115, 2-{(4-Methoxybenzyl)[5-(4-{2-[4-(trifluoromethoxy)phenyl]ethoxy}phenyl)pentanoyl]amino}ethyl dihydrogen phosphate ammonium salt] |  |
| > 10000 | 43 | 103 |  |  |  | CCCCCCCCCCCOc1cccc(-c2ccnc(N[C@@H]3CCC[C@@H]3OP(=O)(O)O)c2)c1 [Example compound 142, (1S,2R)-2-({4-[3-(Undecyloxy)phenyl]pyridin-2-yl}amino)cyclopentyl dihydrogen phosphate ammonium salt] |  |
| > 10000 | < 41 | 114 |  |  |  | CCCCCCc1ccc(CCCCCCCCC(=O)N2CC(OP(=O)(O)O)C2)cc1 [Example compound 118, 1-[9-(4-Hexylphenyl)nonanoyl]azetidin-3-yl dihydrogen phosphate] |  |
|  |  |  | > 10000 | 42 | 75 | CCCc1ccc(CCCCCCCC(=O)N2CC(OP(=O)(O)O)C2)cc1 [Example 15, 1-[8-(4-Propylphenyl)octanoyl]azetidin-3-yl dihydrogen phosphate] |  |
|  |  |  | > 10000 | 33 | 121 | CCCCCCCCCCOc1cccc(CCC(=O)N(CCOP(=O)(O)O)CC(C)C)c1 [Example 33, 2-[{3-[3-(Decyloxy)phenyl]propanoyl}(2-methylpropyl)amino]ethyl dihydrogen phosphate ammonium salt] |  |
|  |  |  | > 10000 | 20 | 153 | CCCCCCCCCOc1ccc(CCC(=O)N2CC[C@@H](OP(=O)(O)O)C2)cc1 [Example 20, (3R)-1-{3-[4-(Nonyloxy)phenyl]propanoyl}pyrrolidin-3-yl dihydrogen phosphate ammonium salt] |  |
|  |  |  | > 10000 | < 41 | 106 | CCCCCCCCCCOc1cccc(CCC(=O)N(CCOP(=O)(O)O)Cc2ccc(OC)cc2)c1 [Example compound 54, 2-[{3-[3-(Decyloxy)phenyl]propanoyl}(4-methoxybenzyl)amino]ethyl dihydrogen phosphate ammonium salt] |  |
| > 10000 | 40 | 108 |  |  |  | CCCCCCCc1ccc(CCCCC(=O)N2CC(OP(=O)(O)O)C2)c(C(F)(F)F)c1 [Example compound 100, 1-{5-[4-Heptyl-2-(trifluoromethyl)phenyl]pentanoyl}azetidin-3-yl dihydrogen phosphate ammonium salt] |  |
| > 10000 | < 41 | 136 |  |  |  | CCCCCCCCCCOc1cccc(CCC(=O)N(CCOP(=O)(O)O)Cc2cccc(OC)c2)c1 [Example compound 95, 2-[{3-[3-(Decyloxy)phenyl]propanoyl}(3-methoxybenzyl)amino]ethyl dihydrogen phosphate ammonium salt] |  |
| > 10000 | < 41 | 87 |  |  |  | CCCCCCCCCCCOc1cccc(-c2ccnc(NC[C@@H](C)OP(=O)(O)O)n2)c1 [Example compound 134, (2R)-1-({4-[3-(Undecyloxy)phenyl]pyrimidinyl}amino)propan-2-yl dihydrogen phosphate] |  |
| > 10000 | < 41 | 101 |  |  |  | CCCCCCCCCCCOc1cccc(-c2ccnc(NC[C@@H](C)OP(=O)(O)O)c2)c1 [Example compound 133, (2R)-1-({4-[3-(Undecyloxy)phenyl]pyridin-2-yl}amino)propan-2-yl dihydrogen phosphate] |  |

| Compound | EC50 ([1]; BSA added) [nM] | EC50 ([2]; BSA added) [nM] | Emax [2, 3] [%] | EC50 ([1]; BSA not added) [nM] | EC50 ([2]; BSA not added) [nM] | Emax [2, 4] [%] | Emax ([2]; RH7777, read-out: LPA4/SRE-luc % Emax) [%] |
| --- | --- | --- | --- | --- | --- | --- | --- |
| Cc1ccc(CCCCCCCCCC(=O)N2CC(OP(=O)(O)O)C2)cc1 [Example 10, 1-[10-(4-Methylphenyl)decanoyl]azetidin-3-yl dihydrogen phosphate] |  |  |  | > 10000 | 30 |  | 101 |
